Assay [1] relates to TNF-alpha inducible reporter gene. Description: Inhibition of TNF-alpha-induced reporter gene expression (luciferase) in HeLa-derived cell line. The conditions noted are these: Homo sapiens, 6 h, remaining luciferase activity in presence of 3 μM of compound as ratio of DMSO-treated cells, TNF-alpha 50 ng/ml, read-out: Efficacy (ratio to DMSO) TNF-alpha induced response. Format: cell-based, human. An excerpt: TNF-alpha responsive cell lines like the human HeLa cell line can be used to study cellular responses to TNF-alpha, e.g. transcriptional regulation of a transfected TNF-alpha responsive reporter gene, and effects of kinase inhibitors on this response.
In order to analyse compound effects on TNF-alpha mediated transcriptional response, a HeLa-derived cell line stably transfected with a TNF-alpha inducible reporter gene was used (Panomics Catalog No. RC0013). The cell line was obtained by co-transfection of a luciferase reporter gene (Panomics P/N LR0051) and pHyg into human cervical epithelial HeLa cells, followed by hygromycin selection. TNFα-induced luciferase activity was used to select clones from the hygromycin-resistant cells. The cell line was maintained and stimulated according to the manufacturer's instructions. Briefly, cells were seeded at 5×10^5/well in 1 ml of growth medium in a 12-well plate and incubated in a humidified incubator at 37° C. and 5% CO2 for 24 hours. Medium was replaced with 1 ml of serum free medium and compounds were added up to concentrations of […]. After 1 hour of incubation, TNF-alpha was added to achieve a final concentration of 50 ng/ml. The culture dish was further incubated in a humidified incubator at 37° C. and 5% CO2 for 6 hours, medium was removed and 100 μL of lysis buffer were added to each well and the assay for luciferase activity was performed according to assay manufacturer's (Promega P/N E1500) recommendations. For more information about this cell line, go to worldwide website www(dot)panomics.com.
Compound effects on TNF-alpha-induced reporter gene expression is shown in column 6 in Table 1 given below. Indicated is the remaining luciferase activity after incubation in presence of 3 μM of compound as a ratio of the activity of DMSO-treated cells without compound. Specifically, it was intended to distinguish cell permeable compounds from other compounds having significant inhibitory potency with regard to other CDKs, but fail to penetrate cells or are unstable under the conditions of the experiment.
(In a reporter assay the amount or activity of a reporter protein is the signal.)

Assay [2] deals with CDK9 (Homo sapiens (Human), UniProt P50750). Description: In vitro kinase inhibition, KinaseProfiler service of Millipore, residual activity. The format is biochemical. The conditions noted are these: for remaining activity at 0.01 µM: residual activity at 10 nM compound, read-out: CDK9 10 nM (RA in %); for remaining activity at 0.1 µM: residual activity at 100 nM compound, read-out: CDK9 100 nM (RA in %). An excerpt: (§1) In vitro kinase assay analysis may be performed using standard techniques described in the art. These techniques are also used by commercial services providers in order to offer in vitro kinase activity assay services, e.g. the assays offered by Millipore Inc. (worldwide website www(dot)millipore.com), ProQinase GmbH (worldwide website www(dot)proqinase.de) and others.
In vitro kinase inhibition results shown in columns 7 to 9 in Table 1 were obtained by employing the KinaseProfiler™ service of Millipore and used to select compounds displaying specificity for CDK9. Specifically, it was intended to distinguish the CDK9-specific compounds from other compounds having significant inhibitory potency also with regard to other CDKs.

Assay [3] concerns the target CDK1/CycB (Homo sapiens (Human), UniProt P06493). In words: Kinase activity assay IC50 profile. The format is biochemical. The conditions noted are these: read-out: IC50 CDK1/B. How it is done:
as §1
(§2) On the day of the kinase inhibition assay, 451 μl H2O were added to each well of a set of compound dilution plates. To minimize precipitation, the H2O was added to the plates only a few minutes before the transfer of the compound solutions into the assay plates. The plates were shaken thoroughly, resulting in “compound dilution plates/10%/DMSO” with a concentration of 1×10^−03 M/10% DMSO to 3×10^−08 M/10% DMSO in semilog steps. These plates were used for the transfer of 5 μl compound solution into the “assay plates”. The compound dilution plates were discarded at the end of the working day. For the assays (see below), 5 μl solution from each well of the compound dilution plates were transferred into the assay plates. The final volume of the assay was 50 μl. […]
(§3) The median value of the counts in column 1 (n=8) of each assay plate was defined as “low control”. This value reflects unspecific binding of radioactivity to the plate in the absence of a protein kinase but in the presence of the substrate. […]

Assay [4] deals with CDK3/CycE (Homo sapiens (Human), UniProt Q00526). Description: Kinase activity assay IC50 profile. The format is biochemical. The conditions noted are these: read-out: IC50 CDK3/E. How it is done:
as §1, §2, §3

For assay [5], the target named is CDK2/CycA (Homo sapiens (Human), UniProt P24941). Description: Kinase activity assay IC50 profile. Format: biochemical. As for the experimental part:
as §1, §2, §3

Assay [6] concerns the target CDK5/p35NCK (Homo sapiens (Human), UniProt Q00535). Description: Kinase activity assay IC50 profile. The format is biochemical. To be noted: read-out: IC50 CDK5/p35. How it is done:
as §1, §2, §3

Assay [7] addresses GSK3-beta (Homo sapiens (Human), UniProt P49841). Description: Kinase activity assay IC50 profile. Format: biochemical. To be noted: read-out: IC50 GSK3b. How it is done:
as §1
(§4) On the day of the kinase inhibition assay, 451 μl H2O were added to each well of a set of compound dilution plates. To minimize precipitation, the H2O was added to the plates only a few minutes before the transfer of the compound solutions into the assay plates. The plates were shaken thoroughly, resulting in “compound dilution plates/10%/DMSO” with a concentration of 1×10^−03 M/10% DMSO to 3×10^−08 M/10% DMSO in semilog steps. These plates were used for the transfer of 5 μl compound solution into the “assay plates”. The compound dilution plates were discarded at the end of the working day. For the assays (see below), 5 μl solution from each well of the compound dilution plates were transferred into the assay plates. The final volume of the assay was 50 μl. All compounds were tested at 10 final assay concentrations in the range from 1×10^−04 M to 3×10^−09 M. The final DMSO concentration in the reaction mixtures was 1% in all cases.
(§5) All kinase assays were performed in 96-well FlashPlates™ from Perkin Elmer/NEN (Boston, Mass., USA) in a 50 μl reaction volume. The reaction mixture was pipetted in four steps in the following order: • 20 μl of assay buffer (standard buffer) • 5 μl of ATP solution (in H2O) • 5 μl of test compound (in 10% DMSO) • 10 μl of substrate/10 μl of enzyme solution (premixed)
(§6) The assay for all enzymes contained 60 mM HEPES-NaOH (pH 7.5), 3 mM MgCl2, 3 mM MnCl2, 3 μM Na-Orthovanadate, 1.2 mM DTT, 50 μg/ml PEG2000, 1 μM [^33P]-ATP (approx. 5 ×1005 cpm per well).
(§7) Reaction mixtures were incubated at 30° C. for 80 min. The reaction was stopped with 50 μl of 2% (v/v) H3PO4, plates were aspirated and washed two times with 200 μl H2O or 200 μl 0.9% (w/v) NaCl. Incorporation of ^33P was determined with a microplate scintillation counter (Microbeta, Wallac).
(§8) The median value of the counts in column 1 (n=8) of each assay plate was defined as “low control”. This value reflects unspecific binding of radioactivity to the plate in the absence of a protein kinase but in the presence of the substrate. […] The residual activity (in %) for each well of a particular plate was calculated by using the following formula: Res. Activity(%)=100×[(cpm of compound−low control)/(high control−low control)]
(§9) The residual activities for each concentration and the compound IC50 values were calculated using Quattro Workflow V2.0.1.3 (Quattro Research GmbH, Munich, Germany; worldwide website www(dot)quattro-research.com). […]

Assay [8] addresses CDK7/CycH/MAT1 (Homo sapiens (Human), UniProt P50613). Description: Kinase activity assay IC50 profile. The format is biochemical. To be noted: read-out: IC50 CDK7/H/MAT1. How it is done:
as §1, §4, §5, §6, §7, §8, §9

Assay [9] concerns the target IRAK1 (Homo sapiens (Human), UniProt P51617). In words: Kinase activity assay IC50 profile. Format: biochemical. As for the experimental part:
as §1, §4, §5, §6, §7, §8, §9

In assay [10] the target is GSK3-alpha (Homo sapiens (Human), UniProt P49840). In words: Kinase activity assay IC50 profile. To be noted: read-out: IC50 GSK3a. The format is biochemical. As for the experimental part: as §1, §4, §5, §6, §7, §8, §9
The target in assay [11] is CDK6/CycD3 (Homo sapiens (Human), UniProt Q00534). In words: Kinase activity assay IC50 profile. Format: biochemical. The conditions noted are these: read-out: IC50 CDK6/D3.

SMILES strings stand for the structures. pIC50: −log10 of the molar value.

CDK9, sequence (P50750 whole entry): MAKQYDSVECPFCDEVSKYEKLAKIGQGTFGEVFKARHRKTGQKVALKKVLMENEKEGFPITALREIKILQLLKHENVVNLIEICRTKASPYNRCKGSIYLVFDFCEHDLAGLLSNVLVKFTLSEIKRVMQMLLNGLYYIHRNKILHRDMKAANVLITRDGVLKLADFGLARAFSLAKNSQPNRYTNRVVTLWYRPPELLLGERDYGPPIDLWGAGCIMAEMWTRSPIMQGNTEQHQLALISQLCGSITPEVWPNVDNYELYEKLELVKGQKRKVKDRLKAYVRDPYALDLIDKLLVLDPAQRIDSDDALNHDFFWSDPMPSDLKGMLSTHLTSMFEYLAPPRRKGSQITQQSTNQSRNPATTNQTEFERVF
CDK9, sequence (O60563 whole entry partner): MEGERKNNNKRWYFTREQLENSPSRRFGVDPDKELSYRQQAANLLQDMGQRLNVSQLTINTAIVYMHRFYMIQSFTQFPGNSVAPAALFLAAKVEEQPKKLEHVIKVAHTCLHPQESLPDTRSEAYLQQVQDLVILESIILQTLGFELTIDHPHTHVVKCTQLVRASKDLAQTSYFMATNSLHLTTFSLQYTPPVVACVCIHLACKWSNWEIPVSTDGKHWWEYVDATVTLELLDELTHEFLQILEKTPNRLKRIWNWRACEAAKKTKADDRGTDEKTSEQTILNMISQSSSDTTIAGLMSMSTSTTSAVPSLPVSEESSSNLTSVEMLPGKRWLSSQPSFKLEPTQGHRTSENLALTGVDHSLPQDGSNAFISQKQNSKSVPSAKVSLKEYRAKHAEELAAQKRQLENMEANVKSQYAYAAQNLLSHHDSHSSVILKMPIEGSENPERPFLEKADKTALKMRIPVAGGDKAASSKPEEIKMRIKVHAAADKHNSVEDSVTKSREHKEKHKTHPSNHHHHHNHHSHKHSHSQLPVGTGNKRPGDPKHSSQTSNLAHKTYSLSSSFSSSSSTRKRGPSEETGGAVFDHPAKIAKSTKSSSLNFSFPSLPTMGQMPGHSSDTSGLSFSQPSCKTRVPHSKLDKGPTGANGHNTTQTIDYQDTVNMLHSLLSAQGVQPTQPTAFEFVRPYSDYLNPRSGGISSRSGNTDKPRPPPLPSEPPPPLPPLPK
IRAK1, sequence (P51617 whole entry): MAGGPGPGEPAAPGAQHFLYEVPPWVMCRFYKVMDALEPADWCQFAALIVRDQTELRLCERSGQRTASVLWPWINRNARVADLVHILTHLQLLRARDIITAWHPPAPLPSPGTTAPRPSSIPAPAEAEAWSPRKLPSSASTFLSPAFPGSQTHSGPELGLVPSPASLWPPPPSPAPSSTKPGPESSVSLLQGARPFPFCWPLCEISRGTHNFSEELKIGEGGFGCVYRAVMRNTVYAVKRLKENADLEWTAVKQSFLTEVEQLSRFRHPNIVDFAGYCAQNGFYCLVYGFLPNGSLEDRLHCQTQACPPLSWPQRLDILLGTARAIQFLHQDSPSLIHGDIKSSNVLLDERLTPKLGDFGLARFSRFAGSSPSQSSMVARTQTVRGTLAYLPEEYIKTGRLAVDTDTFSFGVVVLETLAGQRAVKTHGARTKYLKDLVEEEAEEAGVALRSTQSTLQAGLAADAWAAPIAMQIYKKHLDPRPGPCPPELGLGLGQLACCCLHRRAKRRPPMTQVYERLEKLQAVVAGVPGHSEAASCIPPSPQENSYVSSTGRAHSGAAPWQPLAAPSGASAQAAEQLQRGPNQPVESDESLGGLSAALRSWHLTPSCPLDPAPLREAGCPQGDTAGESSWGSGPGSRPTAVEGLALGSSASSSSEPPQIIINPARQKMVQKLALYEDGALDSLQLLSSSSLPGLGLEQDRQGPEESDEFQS
CDK3/CycE, sequence (Q00526 whole entry): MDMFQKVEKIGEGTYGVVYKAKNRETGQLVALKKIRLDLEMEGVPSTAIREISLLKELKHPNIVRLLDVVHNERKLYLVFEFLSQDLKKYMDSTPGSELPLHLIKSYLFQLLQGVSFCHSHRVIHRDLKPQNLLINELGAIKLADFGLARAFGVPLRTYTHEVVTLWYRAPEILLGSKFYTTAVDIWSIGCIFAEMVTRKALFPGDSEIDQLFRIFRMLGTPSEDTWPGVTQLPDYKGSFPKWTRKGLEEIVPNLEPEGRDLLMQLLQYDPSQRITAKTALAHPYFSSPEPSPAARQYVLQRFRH
CDK3/CycE, sequence (P24864 whole entry partner): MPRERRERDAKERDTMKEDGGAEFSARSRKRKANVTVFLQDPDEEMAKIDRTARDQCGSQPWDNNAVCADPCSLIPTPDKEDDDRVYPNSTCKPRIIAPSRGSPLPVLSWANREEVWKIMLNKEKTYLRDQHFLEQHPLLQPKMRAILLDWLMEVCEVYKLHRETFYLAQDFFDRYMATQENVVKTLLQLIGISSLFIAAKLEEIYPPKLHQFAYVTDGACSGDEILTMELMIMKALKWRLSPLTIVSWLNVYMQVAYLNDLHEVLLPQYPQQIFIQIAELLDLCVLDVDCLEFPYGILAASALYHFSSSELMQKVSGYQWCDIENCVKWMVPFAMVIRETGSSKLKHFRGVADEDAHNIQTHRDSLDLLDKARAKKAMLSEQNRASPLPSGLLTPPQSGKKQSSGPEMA
CDK5/p35NCK, sequence (Q00535 whole entry): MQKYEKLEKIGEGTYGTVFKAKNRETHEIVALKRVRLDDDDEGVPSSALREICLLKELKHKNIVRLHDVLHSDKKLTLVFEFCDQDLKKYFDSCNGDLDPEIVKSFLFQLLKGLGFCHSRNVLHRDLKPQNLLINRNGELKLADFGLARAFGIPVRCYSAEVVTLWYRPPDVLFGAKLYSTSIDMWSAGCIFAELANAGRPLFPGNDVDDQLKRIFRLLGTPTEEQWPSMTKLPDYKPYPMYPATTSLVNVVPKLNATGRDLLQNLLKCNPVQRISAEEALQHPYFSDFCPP
CDK5/p35NCK, sequence (Q15078 whole entry partner): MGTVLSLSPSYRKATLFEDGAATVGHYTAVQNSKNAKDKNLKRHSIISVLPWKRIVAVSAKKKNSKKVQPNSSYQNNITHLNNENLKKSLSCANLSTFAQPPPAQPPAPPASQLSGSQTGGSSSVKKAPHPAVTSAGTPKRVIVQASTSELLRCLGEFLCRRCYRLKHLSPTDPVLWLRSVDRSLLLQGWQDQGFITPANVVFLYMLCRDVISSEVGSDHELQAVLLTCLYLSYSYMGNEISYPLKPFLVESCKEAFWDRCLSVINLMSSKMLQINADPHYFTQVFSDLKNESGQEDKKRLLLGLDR
GSK3-beta, sequence (P49841 whole entry): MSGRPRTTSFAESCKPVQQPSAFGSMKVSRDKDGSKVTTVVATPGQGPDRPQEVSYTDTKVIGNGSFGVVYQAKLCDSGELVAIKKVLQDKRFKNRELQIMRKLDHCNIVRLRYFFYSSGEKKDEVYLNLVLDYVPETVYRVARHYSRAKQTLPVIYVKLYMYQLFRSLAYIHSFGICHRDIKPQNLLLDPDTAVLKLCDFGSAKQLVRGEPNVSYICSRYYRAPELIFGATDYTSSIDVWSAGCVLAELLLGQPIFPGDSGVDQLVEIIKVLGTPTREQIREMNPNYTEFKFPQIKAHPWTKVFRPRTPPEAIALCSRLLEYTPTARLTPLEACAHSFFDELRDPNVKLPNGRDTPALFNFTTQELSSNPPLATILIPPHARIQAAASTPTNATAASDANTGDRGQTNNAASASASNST
CDK6/CycD3, sequence (Q00534 whole entry): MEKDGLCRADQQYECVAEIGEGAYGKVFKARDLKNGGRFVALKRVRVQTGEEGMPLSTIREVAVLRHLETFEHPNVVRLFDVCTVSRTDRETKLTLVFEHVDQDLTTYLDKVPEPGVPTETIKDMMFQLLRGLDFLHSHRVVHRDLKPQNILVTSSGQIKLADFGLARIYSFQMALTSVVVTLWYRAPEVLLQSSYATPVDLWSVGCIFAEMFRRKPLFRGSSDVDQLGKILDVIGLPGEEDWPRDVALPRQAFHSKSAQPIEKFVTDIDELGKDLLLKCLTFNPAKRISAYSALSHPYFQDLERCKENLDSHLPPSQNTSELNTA
CDK6/CycD3, sequence (P30281 whole entry partner): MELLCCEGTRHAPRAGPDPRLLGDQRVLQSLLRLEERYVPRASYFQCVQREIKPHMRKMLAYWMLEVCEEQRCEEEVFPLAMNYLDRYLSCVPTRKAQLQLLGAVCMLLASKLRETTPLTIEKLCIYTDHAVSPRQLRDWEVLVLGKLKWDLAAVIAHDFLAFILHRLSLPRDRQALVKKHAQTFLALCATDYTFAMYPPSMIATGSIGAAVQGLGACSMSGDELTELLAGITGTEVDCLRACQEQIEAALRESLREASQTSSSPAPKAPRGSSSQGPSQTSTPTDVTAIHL
GSK3-alpha, sequence (P49840 whole entry): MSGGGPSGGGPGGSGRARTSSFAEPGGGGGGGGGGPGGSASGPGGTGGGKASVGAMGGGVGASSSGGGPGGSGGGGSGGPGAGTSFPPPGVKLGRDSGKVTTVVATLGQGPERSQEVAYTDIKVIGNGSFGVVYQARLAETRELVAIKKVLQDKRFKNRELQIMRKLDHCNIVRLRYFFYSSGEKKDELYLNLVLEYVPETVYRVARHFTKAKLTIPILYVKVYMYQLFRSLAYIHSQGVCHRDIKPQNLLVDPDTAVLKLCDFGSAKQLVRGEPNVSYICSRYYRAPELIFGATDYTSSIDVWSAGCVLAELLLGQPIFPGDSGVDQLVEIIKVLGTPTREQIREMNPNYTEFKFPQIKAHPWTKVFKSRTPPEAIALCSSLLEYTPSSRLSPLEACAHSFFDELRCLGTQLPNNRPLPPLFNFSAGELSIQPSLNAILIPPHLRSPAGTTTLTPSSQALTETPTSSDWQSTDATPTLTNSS

For the molecule `COc1cc(F)ccc1-c1ccnc(NC(=O)[C@H]2CCC[C@@H](NC(C)=O)C2)c1` (relative stereo) [Example 33, cis-3-Acetamido-N-(4-(4-fluoro-2-methoxyphenyl)pyridin-2-yl)cyclo-hexanecarboxamide], the activity at 3 µM in assay [1] amounted to 3%. The remaining activity at 0.01 µM in [2] was determined as 29%. Further, the remaining activity at 0.1 µM in [2] was 3%. Moreover, the pIC50 was 7.03 in assay [3]; 6.66 in assay [4]; 6.77 in assay [5]; 5.97 in assay [6]; 6.04 in [7]; less than 5.30 in [8]. In addition, the results for the pIC50 in [9], in assay [10] and in assay [11] were less than 5.30, 6.80 and less than 5.30, respectively.

In the case of `COc1cc(F)ccc1-c1ccnc(NC(=O)[C@H]2CC[C@@H](Nc3ccccc3)CC2)c1` [Example 36, cis-N-(4-(4-Fluoro-2-methoxyphenyl)pyridin-2-yl)-4-(phenylamino)-cyclohexanecarboxamide], in assay [1], the activity at 3 µM was 26%. Further, in assay [2], the remaining activity at 0.01 µM was determined as 59% and the remaining activity at 0.1 µM amounted to 12%.

Take `COc1cc(F)ccc1-c1ccnc(NC(=O)[C@@H]2CC[C@H](NCc3ccccc3)C2)c1` [Example 37, (1R,3S)-3-(Benzylamino)-N-(4-(4-fluoro-2-methoxyphenyl)pyridin-2-yl)cyclopentanecarboxamide]: in assay [1], the activity at 3 µM stood at 2%. Besides, in [2], the remaining activity at 0.01 µM worked out at 20% and the remaining activity at 0.1 µM is 2%.

Turning to `COc1cc(F)ccc1-c1ccnc(NC(=O)[C@H]2CC[C@@H](NCc3ccccc3)CC2)c1` [Example 38, cis-4-(Benzylamino)-N-(4-(4-fluoro-2-methoxyphenyl)pyridin-2-yl)cyclo-hexanecarboxamide], the activity at 3 µM in assay [1] amounted to 2%. Moreover, in assay [2], the remaining activity at 0.01 µM was determined as 65% and the remaining activity at 0.1 µM came to 4%.

With `COc1cc(F)ccc1-c1ccnc(NC(=O)[C@@H]2CC[C@H](Nc3ccccc3)C2)c1` [Example 39, (1R,3S)—N-(4-(4-Fluoro-2-methoxyphenyl)pyridin-2-yl)-3-(phenylamino)-cyclopentanecarboxamide], the activity at 3 µM in assay [1] was found to be 5%. Moreover, in assay [2], the remaining activity at 0.01 µM was 60% and the remaining activity at 0.1 µM was 6%.

Turning to `COc1cc(F)ccc1-c1ccnc(NC(=O)[C@@H]2CCC[C@H](NC(C)=O)C2)c1` [Example 40, (1R,3S)-3-Acetamido-N-(4-(4-fluoro-2-methoxyphenyl)pyridin-2-yl)cyclohexanecarboxamide], in assay [1], the activity at 3 µM turned out to be 46%. In assay [2], the remaining activity at 0.01 µM was determined as 89% and the remaining activity at 0.1 µM is 38%.

Regarding `COc1cc(F)ccc1-c1ccnc(NC(=O)[C@H]2CC[C@@H](NC(C)=O)C2)c1` [Example 41, (1S,3R)-3-Acetamido-N-(4-(4-fluoro-2-methoxyphenyl)pyridin-2-yl)cyclopentanecarboxamide], the activity at 3 µM in [1] was found to be 3%. In assay [2], the remaining activity at 0.01 µM amounted to 38% and the remaining activity at 0.1 µM was 8%.

The record behind these values is US9067888B2, “Inhibitors of protein kinases” (Ingenium Pharmaceuticals GmbH, priority 2010, dated 2015).
